According to PubChem BioAssay (NCI):
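A five-concentration, 48-hour dose response in 96-well plates underlies each endpoint, interpolated linearly between surrounding concentrations. The concentration for full growth arrest is given as TGI.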

Experiments:
Experiment in all cases: NCI tumour cell line growth inhibition, 48 h
[1] = tested on: 786-0 renal
[2] = tested on: A549 NSCLC
[3] = tested on: ACHN renal
[4] = tested on: CAKI-1 renal
[5] = tested on: CCRF-CEM leukemia
[6] = tested on: COLO 205 colon
[7] = tested on: DLD-1 colon
[8] = tested on: DMS 114 small cell lung
[9] = tested on: DMS 273 small cell lung
[10] = tested on: EKVX NSCLC
[11] = tested on: HCC-2998 colon
[12] = tested on: HCT-116 colon
[13] = tested on: HCT-15 colon
[14] = tested on: HL-60(TB) leukemia
[15] = tested on: HOP-18 NSCLC
[16] = tested on: HOP-62 NSCLC
[17] = tested on: HOP-92 NSCLC
[18] = tested on: HT29 colon
[19] = tested on: IGROV1 ovarian
[20] = tested on: K-562 leukemia
[21] = tested on: KM12 colon
[22] = tested on: KM20L2 colon
[23] = tested on: LOX IMVI melanoma
[24] = tested on: LXFL 529 NSCLC
[25] = tested on: M14 melanoma
[26] = tested on: M19-MEL melanoma
[27] = tested on: MALME-3M melanoma
[28] = tested on: MOLT-4 leukemia
[29] = tested on: NCI-H226 lung
[30] = tested on: NCI-H23 lung
[31] = tested on: NCI-H460 lung
[32] = tested on: OVCAR-3 ovarian
[33] = tested on: OVCAR-4 ovarian
[34] = tested on: OVCAR-5 ovarian
[35] = tested on: OVCAR-8 ovarian
[36] = tested on: RXF 393 renal
[37] = tested on: RXF-631 renal
[38] = tested on: SF-268 CNS
[39] = tested on: SF-295 CNS
[40] = tested on: SF-539 CNS
[41] = tested on: SK-MEL-2 melanoma
[42] = tested on: SK-MEL-28 melanoma
[43] = tested on: SK-MEL-5 melanoma
[44] = tested on: SK-OV-3 ovarian
[45] = tested on: SN12C renal
[46] = tested on: SNB-19 CNS
[47] = tested on: SNB-75 CNS
[48] = tested on: SNB-78 CNS
[49] = tested on: SR leukemia
[50] = tested on: SW-620 colon
[51] = tested on: TK-10 renal
[52] = tested on: U251 CNS
[53] = tested on: UACC-257 melanoma
[54] = tested on: UACC-62 melanoma
[55] = tested on: UO-31 renal
[56] = tested on: XF 498 CNS
[57] = tested on: A498 renal
[58] = tested on: RPMI-8226 leukemia

**Q.** Which results are given for `O=c1nc2sc3ccc4ccccc4c3n2nc1-c1ccccc1`?
**A.** TGI [1]: 38 µM; TGI [2]: 94.5 µM; TGI [3]: 87.4 µM; TGI [4]: 73.9 µM; TGI [5]: > 100 µM; TGI [6]: > 100 µM; TGI [7]: > 100 µM; TGI [8]: > 100 µM; TGI [9]: > 100 µM; TGI [10]: > 100 µM; TGI [11]: > 100 µM; TGI [12]: 51.2 µM; TGI [13]: > 100 µM; TGI [14]: > 100 µM; TGI [15]: 93.7 µM; TGI [16]: 66.6 µM; TGI [17]: 50 µM; TGI [18]: > 100 µM; TGI [19]: 82.6 µM; TGI [20]: > 100 µM; TGI [21]: > 100 µM; TGI [22]: > 100 µM; TGI [23]: 28.4 µM; TGI [24]: > 100 µM; TGI [25]: > 100 µM; TGI [26]: > 100 µM; TGI [27]: 41.1 µM; TGI [28]: > 100 µM; TGI [29]: > 100 µM; TGI [30]: 87.5 µM; TGI [31]: 59.2 µM; TGI [32]: 40.4 µM; TGI [33]: 29.3 µM; TGI [34]: > 100 µM; TGI [35]: 42.2 µM; TGI [36]: 70.6 µM; TGI [37]: > 100 µM; TGI [38]: > 100 µM; TGI [39]: 33.3 µM; TGI [40]: 34.2 µM; TGI [41]: > 100 µM; TGI [42]: > 100 µM; TGI [43]: > 100 µM; TGI [44]: 95.1 µM; TGI [45]: 93.8 µM; TGI [46]: > 100 µM; TGI [47]: 46.9 µM; TGI [48]: > 100 µM; TGI [49]: > 100 µM; TGI [50]: > 100 µM; TGI [51]: 50.4 µM; TGI [52]: 38.2 µM; TGI [53]: > 100 µM; TGI [54]: > 100 µM; TGI [55]: 51.4 µM; TGI [56]: 70.2 µM

**Q.** Which TGI [1] does the source give for `CCN(C1=CC(=O)NC2CCCCN12)c1ccccc1` (stereo not given) here?
**A.** > 100 µM

**Q.** And the TGI [57]?
**A.** > 100 µM

**Q.** What about the TGI [2] of the same molecule?
**A.** > 100 µM

**Q.** And the TGI [3]?
**A.** > 100 µM

**Q.** And the TGI [4]?
**A.** > 100 µM

**Q.** What about the TGI [5] of the same molecule?
**A.** > 100 µM

**Q.** And the TGI [6]?
**A.** > 100 µM

**Q.** And the TGI [7]?
**A.** > 100 µM

**Q.** What about the TGI [8] of the same molecule?
**A.** > 100 µM

**Q.** What about the TGI [9] of the same molecule?
**A.** > 100 µM

**Q.** What about the TGI [10] of the same molecule?
**A.** > 100 µM

**Q.** What about the TGI [11] of the same molecule?
**A.** > 100 µM

**Q.** What about the TGI [12] of the same molecule?
**A.** > 100 µM

**Q.** What about the TGI [13] of the same molecule?
**A.** > 100 µM

**Q.** What about the TGI [15] of the same molecule?
**A.** > 100 µM

**Q.** And the TGI [16]?
**A.** > 100 µM

**Q.** What about the TGI [18] of the same molecule?
**A.** > 100 µM

**Q.** And the TGI [19]?
**A.** > 100 µM

**Q.** And the TGI [20]?
**A.** > 100 µM

**Q.** What about the TGI [21] of the same molecule?
**A.** > 100 µM

**Q.** What about the TGI [22] of the same molecule?
**A.** > 100 µM

**Q.** And the TGI [23]?
**A.** > 100 µM

**Q.** What about the TGI [24] of the same molecule?
**A.** > 100 µM

**Q.** And the TGI [25]?
**A.** > 100 µM

**Q.** And the TGI [26]?
**A.** > 100 µM

**Q.** What about the TGI [27] of the same molecule?
**A.** > 100 µM

**Q.** And the TGI [28]?
**A.** > 100 µM

**Q.** And the TGI [30]?
**A.** > 100 µM

**Q.** What about the TGI [31] of the same molecule?
**A.** > 100 µM

**Q.** What about the TGI [32] of the same molecule?
**A.** > 100 µM

**Q.** And the TGI [33]?
**A.** > 100 µM

**Q.** What about the TGI [34] of the same molecule?
**A.** > 100 µM

**Q.** And the TGI [35]?
**A.** > 100 µM

**Q.** And the TGI [58]?
**A.** > 100 µM

**Q.** And the TGI [36]?
**A.** > 100 µM

**Q.** What about the TGI [37] of the same molecule?
**A.** > 100 µM

**Q.** And the TGI [38]?
**A.** > 100 µM

**Q.** What about the TGI [39] of the same molecule?
**A.** > 100 µM

**Q.** And the TGI [40]?
**A.** > 100 µM

**Q.** And the TGI [41]?
**A.** > 100 µM

**Q.** What about the TGI [42] of the same molecule?
**A.** > 100 µM

**Q.** And the TGI [43]?
**A.** > 100 µM

**Q.** What about the TGI [44] of the same molecule?
**A.** > 100 µM

**Q.** And the TGI [45]?
**A.** > 100 µM

**Q.** What about the TGI [46] of the same molecule?
**A.** > 100 µM

**Q.** What about the TGI [47] of the same molecule?
**A.** > 100 µM

**Q.** And the TGI [48]?
**A.** > 100 µM

**Q.** What about the TGI [50] of the same molecule?
**A.** > 100 µM

**Q.** What about the TGI [51] of the same molecule?
**A.** > 100 µM

**Q.** What about the TGI [52] of the same molecule?
**A.** > 100 µM

**Q.** And the TGI [53]?
**A.** > 100 µM

**Q.** And the TGI [54]?
**A.** > 100 µM

**Q.** What about the TGI [56] of the same molecule?
**A.** > 100 µM

**Q.** With `COc1c(CC(=O)c2ccccc2)c2ccccc2n1C(C)=O` as the molecule, how does the TGI [1] read?
**A.** > 100 µM

**Q.** What about the TGI [57] of the same molecule?
**A.** > 100 µM

**Q.** What about the TGI [2] of the same molecule?
**A.** > 100 µM

**Q.** And the TGI [3]?
**A.** > 100 µM

**Q.** What about the TGI [4] of the same molecule?
**A.** > 100 µM

**Q.** What about the TGI [5] of the same molecule?
**A.** > 100 µM

**Q.** And the TGI [6]?
**A.** > 100 µM

**Q.** And the TGI [7]?
**A.** > 100 µM

**Q.** And the TGI [8]?
**A.** > 100 µM

**Q.** And the TGI [9]?
**A.** > 100 µM

**Q.** And the TGI [10]?
**A.** > 100 µM

**Q.** What about the TGI [11] of the same molecule?
**A.** > 100 µM

**Q.** What about the TGI [12] of the same molecule?
**A.** > 100 µM

**Q.** And the TGI [13]?
**A.** > 100 µM

**Q.** And the TGI [14]?
**A.** > 100 µM

**Q.** And the TGI [15]?
**A.** > 100 µM

**Q.** What about the TGI [16] of the same molecule?
**A.** > 100 µM

**Q.** And the TGI [17]?
**A.** > 100 µM

**Q.** What about the TGI [18] of the same molecule?
**A.** > 100 µM

**Q.** What about the TGI [19] of the same molecule?
**A.** > 100 µM

**Q.** And the TGI [20]?
**A.** > 100 µM

**Q.** And the TGI [21]?
**A.** > 100 µM

**Q.** And the TGI [22]?
**A.** > 100 µM

**Q.** What about the TGI [24] of the same molecule?
**A.** > 100 µM

**Q.** What about the TGI [25] of the same molecule?
**A.** > 100 µM

**Q.** What about the TGI [26] of the same molecule?
**A.** > 100 µM

**Q.** What about the TGI [28] of the same molecule?
**A.** > 100 µM

**Q.** What about the TGI [30] of the same molecule?
**A.** > 100 µM

**Q.** And the TGI [31]?
**A.** > 100 µM

**Q.** And the TGI [32]?
**A.** > 100 µM

**Q.** And the TGI [33]?
**A.** > 100 µM

**Q.** What about the TGI [35] of the same molecule?
**A.** > 100 µM

**Q.** What about the TGI [58] of the same molecule?
**A.** > 100 µM

**Q.** What about the TGI [36] of the same molecule?
**A.** > 100 µM

**Q.** What about the TGI [37] of the same molecule?
**A.** > 100 µM

**Q.** And the TGI [39]?
**A.** > 100 µM

**Q.** What about the TGI [40] of the same molecule?
**A.** > 100 µM

**Q.** And the TGI [41]?
**A.** > 100 µM

**Q.** And the TGI [42]?
**A.** > 100 µM

**Q.** What about the TGI [44] of the same molecule?
**A.** > 100 µM

**Q.** What about the TGI [45] of the same molecule?
**A.** > 100 µM

**Q.** And the TGI [46]?
**A.** > 100 µM

**Q.** And the TGI [47]?
**A.** > 100 µM

**Q.** What about the TGI [48] of the same molecule?
**A.** > 100 µM

**Q.** What about the TGI [49] of the same molecule?
**A.** > 100 µM

**Q.** And the TGI [50]?
**A.** > 100 µM

**Q.** And the TGI [52]?
**A.** > 100 µM

**Q.** What about the TGI [53] of the same molecule?
**A.** > 100 µM

**Q.** What about the TGI [54] of the same molecule?
**A.** > 100 µM

**Q.** And the TGI [55]?
**A.** > 100 µM

**Q.** What about the TGI [56] of the same molecule?
**A.** > 100 µM
